Converted amounts (≈) assume the structure as drawn. Read-outs that look alike come from different tables or passages of the source.
Tests used:
[1] = set-up: method as in doi:10.1021/acs.jced.5b00075; settings: cited from earlier work
[2] = cited from earlier work
[3] = set-up: method as in PMID 25478230; settings: cited from earlier work
[4] = Apparent thermodynamic analysis of CNZ dissolution (van't Hoff and Gibbs equations); type: physicochemical
Method: At the mean harmonic temperature (Thm), all apparent thermodynamic parameters were examined. The Thm was calculated using the usual formula [27]. […] The van’t Hoff and Gibbs equations were used to conduct this analysis.

[5] = Shake-flask equilibrium solubility of CNZ in {TP + water} mixtures and neat solvents (HPLC at 253 nm); type: physicochemical; settings: 0.1 MPa
Method: Using a Digital Analytical Balance (Mettler Toledo, Greifensee, Switzerland) with a sensitivity of 0.10 mg, all {TP (1) + water (2)} combinations were created on a mass basis. The mass fraction of TP used to make various {TP (1) + water (2)} compositions ranged from 0.10–0.90. Three replicates of each {TP (1) + water (2)} composition were made.
Three repetitions of each experiment were carried out. Inside the Biological Shaker (Julabo, PA, USA), the acquired samples were saturated for three days to achieve equilibrium. After reaching equilibrium, the saturated samples were withdrawn from the shaker and centrifuged at 5000 rpm.

[6] = TP + water, w1 = 0.1, Thm = 303.0 K
[7] = TP + water, w1 = 0.2, Thm = 303.0 K
[8] = TP + water, w1 = 0.3, Thm = 303.0 K
[9] = TP + water, w1 = 0.4, Thm = 303.0 K
[10] = TP + water, w1 = 0.5, Thm = 303.0 K
[11] = TP + water, w1 = 0.6, Thm = 303.0 K
[12] = TP + water, w1 = 0.7, Thm = 303.0 K
[13] = TP + water, w1 = 0.8, Thm = 303.0 K
[14] = TP + water, w1 = 0.9, Thm = 303.0 K
[15] = w1 = 0.0 (neat water), Thm = 303.0 K
[16] = w1 = 1.0 (neat TP), Thm = 303.0 K

C(=C\c1ccccc1)/CN1CCN(C(c2ccccc2)c2ccccc2)CC1 [CNZ, 1-benzhydryl-4-[(E)-3-phenylprop-2-enyl]piperazine]
Mole fraction solubility in water ([1]; 298.3 K): 6.63 × 10^−8 mole fraction | Mole fraction solubility in water ([1]; 303.0 K): 7.71 × 10^−8 mole fraction | Mole fraction solubility in water ([1]; 307.8 K): 9.35 × 10^−8 mole fraction | Solubility in water [2]: practically insoluble in water | Solubility in aqueous buffer ([3]; pH = 2.0, 310.2 K): 290 µg/mL (≈ 787 µM) | Solubility in aqueous buffer ([3]; pH = 5.0, 310.2 K): 17 µg/mL (≈ 46.1 µM) | Solubility in aqueous buffer ([3]; pH = 6.5, 310.2 K): 2 µg/mL (≈ 5.43 µM) | Apparent standard Gibbs energy (ΔsolnG°) [4, 6]: 9.039 kcal/mol | Apparent standard enthalpy (ΔsolnH°) [4, 6]: 10.41 kcal/mol | Apparent standard entropy (ΔsolnS°) [4, 6]: 18.92 J mol^−1 K^−1 | Apparent standard Gibbs energy (ΔsolnG°) [4, 7]: 8.229 kcal/mol | Apparent standard enthalpy (ΔsolnH°) [4, 7]: 9.964 kcal/mol | Apparent standard entropy (ΔsolnS°) [4, 7]: 23.94 J mol^−1 K^−1 | Apparent standard Gibbs energy (ΔsolnG°) [4, 8]: 7.433 kcal/mol | Apparent standard enthalpy (ΔsolnH°) [4, 8]: 8.662 kcal/mol | Apparent standard entropy (ΔsolnS°) [4, 8]: 16.96 J mol^−1 K^−1 | Apparent standard Gibbs energy (ΔsolnG°) [4, 9]: 6.606 kcal/mol | Apparent standard enthalpy (ΔsolnH°) [4, 9]: 7.596 kcal/mol | Apparent standard entropy (ΔsolnS°) [4, 9]: 13.68 J mol^−1 K^−1 | Apparent standard Gibbs energy (ΔsolnG°) [4, 10]: 5.827 kcal/mol | Apparent standard enthalpy (ΔsolnH°) [4, 10]: 6.879 kcal/mol | Apparent standard entropy (ΔsolnS°) [4, 10]: 14.50 J mol^−1 K^−1 | Apparent standard Gibbs energy (ΔsolnG°) [4, 11]: 5.014 kcal/mol | Apparent standard enthalpy (ΔsolnH°) [4, 11]: 5.853 kcal/mol | Apparent standard entropy (ΔsolnS°) [4, 11]: 11.57 J mol^−1 K^−1 | Apparent standard Gibbs energy (ΔsolnG°) [4, 12]: 4.209 kcal/mol | Apparent standard enthalpy (ΔsolnH°) [4, 12]: 5.21 kcal/mol | Apparent standard entropy (ΔsolnS°) [4, 12]: 13.82 J mol^−1 K^−1 | Apparent standard Gibbs energy (ΔsolnG°) [4, 13]: 3.401 kcal/mol | Apparent standard enthalpy (ΔsolnH°) [4, 13]: 4.085 kcal/mol | Apparent standard entropy (ΔsolnS°) [4, 13]: 9.464 J mol^−1 K^−1 | Apparent standard Gibbs energy (ΔsolnG°) [4, 14]: 2.588 kcal/mol | Apparent standard enthalpy (ΔsolnH°) [4, 14]: 3.365 kcal/mol | Apparent standard entropy (ΔsolnS°) [4, 14]: 10.72 J mol^−1 K^−1 | Apparent standard Gibbs energy (ΔsolnG°) [4, 15]: 9.876 kcal/mol | Apparent standard enthalpy (ΔsolnH°) [4, 15]: 11.39 kcal/mol | Apparent standard Gibbs energy (ΔsolnG°) [4, 16]: 1.791 kcal/mol | Apparent standard enthalpy (ΔsolnH°) [4, 16]: 2.323 kcal/mol | Apparent standard entropy (ΔsolnS°) [4, 16]: 7.346 J mol^−1 K^−1 | Solubility (xe) in mole fraction ([5]; TP + water, w1 = 0.1, T = 293.2 K): 1.66 × 10^−7 mole fraction | Solubility (xe) in mole fraction ([5]; TP + water, w1 = 0.1, T = 298.2 K): 2.30 × 10^−7 mole fraction | Solubility (xe) in mole fraction ([5]; TP + water, w1 = 0.1, T = 303.2 K): 3.16 × 10^−7 mole fraction | Solubility (xe) in mole fraction ([5]; TP + water, w1 = 0.1, T = 308.2 K): 3.91 × 10^−7 mole fraction | Solubility (xe) in mole fraction ([5]; TP + water, w1 = 0.1, T = 313.2 K): 5.30 × 10^−7 mole fraction | Solubility (xe) in mole fraction ([5]; TP + water, w1 = 0.2, T = 293.2 K): 6.50 × 10^−7 mole fraction | Solubility (xe) in mole fraction ([5]; TP + water, w1 = 0.2, T = 298.2 K): 8.87 × 10^−7 mole fraction | Solubility (xe) in mole fraction ([5]; TP + water, w1 = 0.2, T = 303.2 K): 1.23 × 10^−6 mole fraction | Solubility (xe) in mole fraction ([5]; TP + water, w1 = 0.2, T = 308.2 K): 1.51 × 10^−6 mole fraction | Solubility (xe) in mole fraction ([5]; TP + water, w1 = 0.2, T = 313.2 K): 1.95 × 10^−6 mole fraction | Solubility (xe) in mole fraction ([5]; TP + water, w1 = 0.3, T = 293.2 K): 2.64 × 10^−6 mole fraction | Solubility (xe) in mole fraction ([5]; TP + water, w1 = 0.3, T = 298.2 K): 3.50 × 10^−6 mole fraction | Solubility (xe) in mole fraction ([5]; TP + water, w1 = 0.3, T = 303.2 K): 4.49 × 10^−6 mole fraction | Solubility (xe) in mole fraction ([5]; TP + water, w1 = 0.3, T = 308.2 K): 5.35 × 10^−6 mole fraction | Solubility (xe) in mole fraction ([5]; TP + water, w1 = 0.3, T = 313.2 K): 7.00 × 10^−6 mole fraction | Solubility (xe) in mole fraction ([5]; TP + water, w1 = 0.4, T = 293.2 K): 1.12 × 10^−5 mole fraction | Solubility (xe) in mole fraction ([5]; TP + water, w1 = 0.4, T = 298.2 K): 1.42 × 10^−5 mole fraction | Solubility (xe) in mole fraction ([5]; TP + water, w1 = 0.4, T = 303.2 K): 1.72 × 10^−5 mole fraction | Solubility (xe) in mole fraction ([5]; TP + water, w1 = 0.4, T = 308.2 K): 2.09 × 10^−5 mole fraction | Solubility (xe) in mole fraction ([5]; TP + water, w1 = 0.4, T = 313.2 K): 2.62 × 10^−5 mole fraction | Solubility (xe) in mole fraction ([5]; TP + water, w1 = 0.5, T = 293.2 K): 4.24 × 10^−5 mole fraction | Solubility (xe) in mole fraction ([5]; TP + water, w1 = 0.5, T = 298.2 K): 5.26 × 10^−5 mole fraction | Solubility (xe) in mole fraction ([5]; TP + water, w1 = 0.5, T = 303.2 K): 6.34 × 10^−5 mole fraction | Solubility (xe) in mole fraction ([5]; TP + water, w1 = 0.5, T = 308.2 K): 7.33 × 10^−5 mole fraction | Solubility (xe) in mole fraction ([5]; TP + water, w1 = 0.5, T = 313.2 K): 9.22 × 10^−5 mole fraction | Solubility (xe) in mole fraction ([5]; TP + water, w1 = 0.6, T = 293.2 K): 1.73 × 10^−4 mole fraction | Solubility (xe) in mole fraction ([5]; TP + water, w1 = 0.6, T = 298.2 K): 2.10 × 10^−4 mole fraction | Solubility (xe) in mole fraction ([5]; TP + water, w1 = 0.6, T = 303.2 K): 2.44 × 10^−4 mole fraction | Solubility (xe) in mole fraction ([5]; TP + water, w1 = 0.6, T = 308.2 K): 2.77 × 10^−4 mole fraction | Solubility (xe) in mole fraction ([5]; TP + water, w1 = 0.6, T = 313.2 K): 3.36 × 10^−4 mole fraction | Solubility (xe) in mole fraction ([5]; TP + water, w1 = 0.7, T = 293.2 K): 6.89 × 10^−4 mole fraction | Solubility (xe) in mole fraction ([5]; TP + water, w1 = 0.7, T = 298.2 K): 8.00 × 10^−4 mole fraction | Solubility (xe) in mole fraction ([5]; TP + water, w1 = 0.7, T = 303.2 K): 9.22 × 10^−4 mole fraction | Solubility (xe) in mole fraction ([5]; TP + water, w1 = 0.7, T = 308.2 K): 1.05 × 10^−3 mole fraction | Solubility (xe) in mole fraction ([5]; TP + water, w1 = 0.7, T = 313.2 K): 1.23 × 10^−3 mole fraction | Solubility (xe) in mole fraction ([5]; TP + water, w1 = 0.8, T = 293.2 K): 2.81 × 10^−3 mole fraction | Solubility (xe) in mole fraction ([5]; TP + water, w1 = 0.8, T = 298.2 K): 3.17 × 10^−3 mole fraction | Solubility (xe) in mole fraction ([5]; TP + water, w1 = 0.8, T = 303.2 K): 3.53 × 10^−3 mole fraction | Solubility (xe) in mole fraction ([5]; TP + water, w1 = 0.8, T = 308.2 K): 3.90 × 10^−3 mole fraction | Solubility (xe) in mole fraction ([5]; TP + water, w1 = 0.8, T = 313.2 K): 4.43 × 10^−3 mole fraction | Solubility (xe) in mole fraction ([5]; TP + water, w1 = 0.9, T = 293.2 K): 1.12 × 10^−2 mole fraction | Solubility (xe) in mole fraction ([5]; TP + water, w1 = 0.9, T = 298.2 K): 1.25 × 10^−2 mole fraction | Solubility (xe) in mole fraction ([5]; TP + water, w1 = 0.9, T = 303.2 K): 1.38 × 10^−2 mole fraction | Solubility (xe) in mole fraction ([5]; TP + water, w1 = 0.9, T = 308.2 K): 1.48 × 10^−2 mole fraction | Solubility (xe) in mole fraction ([5]; TP + water, w1 = 0.9, T = 313.2 K): 1.62 × 10^−2 mole fraction | Solubility (xe) in mole fraction ([5]; w1 (TP mass fraction) = 0.0 (neat water), T = 293.2 K): 3.91 × 10^−8 mole fraction | Solubility (xe) in mole fraction ([5]; w1 = 0.0 (neat water), T = 298.2 K): 5.67 × 10^−8 mole fraction | Solubility (xe) in mole fraction ([5]; w1 = 0.0 (neat water), T = 303.2 K): 7.82 × 10^−8 mole fraction | Solubility (xe) in mole fraction ([5]; w1 = 0.0 (neat water), T = 308.2 K): 9.78 × 10^−8 mole fraction | Solubility (xe) in mole fraction ([5]; w1 = 0.0 (neat water), T = 313.2 K): 1.42 × 10^−7 mole fraction | Solubility (xe) in mole fraction ([5]; w1 = 1.0 (neat TP), T = 293.2 K): 4.52 × 10^−2 mole fraction | Solubility (xe) in mole fraction ([5]; w1 = 1.0 (neat TP), T = 298.2 K): 4.78 × 10^−2 mole fraction | Solubility (xe) in mole fraction ([5]; w1 = 1.0 (neat TP), T = 303.2 K): 5.08 × 10^−2 mole fraction | Solubility (xe) in mole fraction ([5]; w1 = 1.0 (neat TP), T = 308.2 K): 5.44 × 10^−2 mole fraction | Solubility (xe) in mole fraction ([5]; w1 = 1.0 (neat TP), T = 313.2 K): 5.83 × 10^−2 mole fraction
